Data set [1] is described as follows: Lipophilicity, log D of the compound. Format: physicochemical. To be noted: octanol/water.
A short description of data set [2]: Intrinsic clearance in rat hepatocytes assessed per million cells. Format: ADME, cell-based, Hepatocyte. To be noted: read-out: CLH.
Data set [3] is described as follows: Solubility of the compound. Format: physicochemical.
A short description of data set [4]: in vitro. To be noted: human, Caco-2.
The nature of data set [5]: in vitro. To be noted: human, liver microsomes. On the technique in general: Liver microsomes are vesicles of endoplasmic reticulum, rich in cytochrome P450 enzymes.
Data set [6] in a line: Clearance in iv dosed rat. Format: ADME, organism-based. To be noted: in vivo.
Data set [7] in a line: Oral bioavailability in rat. Format: ADME, organism-based. To be noted: in vivo.
Data set [8] is described as follows: Half life in iv dosed rat. Format: ADME, organism-based. To be noted: in vivo.
A short description of data set [9]: Volume of distribution at steady state in iv dosed rat. To be noted: in vivo, read-out: Vdss. Format: ADME, organism-based.

Structures are written as SMILES. In brackets after ≈: the same amount, converted by molar mass.

Data on 15 molecules can be found in ChEMBL document CHEMBL4000207 (Bioorg Med Chem Lett, 2017).

One may read the logD as the decadic logarithm of the distribution of all forms, ionised or not, between an organic phase and buffer at a given pH. Higher therefore signals a more lipophilic compound. Consider `Cn1nc(-c2cnc(N)c(-c3cnn(C(N)=O)c3)n2)nc1C1(c2ccccc2)CC1`, for which the logD in data set [1] stood at 2.2.

Regarding `Cn1nc(-c2cnc(N)c(-n3nnc4ccccc43)n2)nc1C1(c2ccccc2)CC1`, in data set [1], the log distribution coefficient (logD) came to 4.3.

`Cn1nc(-c2cnc(N)c(-c3cc[nH]n3)n2)nc1C1(c2ccccc2)CC1`: the logD in data set [1] is 3.

Molecule `Cn1nc(-c2cnc(N)c(-n3ccc(C(N)=O)n3)n2)nc1C1(c2ccccc2)CC1` gave a logD in data set [1] of 2.8.

With `Cn1nc(-c2cnc(N)c(-c3ccc(F)nc3)n2)nc1C1(c2ccccc2)CC1`, in data set [1], the logD was found to be 2.5.

In turn, `Cn1nc(-c2cnc(N)c(-c3ccc(N)nc3)n2)nc1C1(c2ccccc2)CC1` registered a logD in data set [1] of 2.

What is called solubility is the concentration that dissolves in the medium under given conditions. What is called Papp A→B is the apparent permeability from the apical to the basolateral side of a cell layer. High values mean ready permeation, low ones poor permeation. Broadly, the microsomal CLint is the capacity of the preparation to metabolise the compound, expressed as a volume cleared per time. Read a high microsomal CLint as rapid turnover. On to `CN(C)S(=O)(=O)n1cc(-c2nc(-c3nc(C4(c5ccccc5)CC4)n(C)n3)cnc2N)cn1`, for which the hepatocyte CLint in [2] turned out to be 157 µL/min/1e6 cells. For the same molecule, in [1], the logD was determined as 2.8. In data set [3], the solubility came out at 11 µM (≈ 5.12 µg/mL). This molecule yielded a Papp A→B in data set [4] of 19 ×10⁻⁶ cm/s. Also, the microsomal CLint in data set [5] came to 191 µL/min/mg.

Molecule `Cn1nc(-c2cnc(N)cn2)nc1C1(c2ccccc2)CC1` came in with a logD in [1] of 1.8.

Molecule `Cc1n[nH]c(C)c1-c1nc(-c2nc(C3(c4ccccc4)CC3)n(C)n2)cnc1N` yielded a logD in data set [1] of 2.3.

Turning to `Cn1nc(-c2cnc(N)c(-c3nnc(C(C)(C)C)o3)n2)nc1C1(c2ccccc2)CC1`, the hepatocyte CLint in data set [2] is 12 µL/min/1e6 cells. Besides, the logD in data set [1] amounted to 3.6. The molecule further returned a solubility in data set [3] of 3 µM (≈ 1.25 µg/mL). For the same molecule, in [4], the Papp A→B was 24 ×10⁻⁶ cm/s. In addition, in [5], the microsomal CLint was found to be 20 µL/min/mg.

As to `Cn1nc(-c2cnc(N)c(-c3cn[nH]c3)n2)nc1C1(c2ccccc2)CC1`, the hepatocyte CLint in data set [2] was found to be 5 µL/min/1e6 cells. For the same molecule, in [1], the logD was 2.1. Besides, the concentration in solution in data set [3] (solubility) came to 37 µM (≈ 13.3 µg/mL). Besides, the Papp A→B in [4] is 6.6 ×10⁻⁶ cm/s. Further, the microsomal CLint in data set [5] is < 3 µL/min/mg.

On to `Cn1nc(-c2cnc(N)c(-c3ccc(C(N)=O)cc3)n2)nc1C1(c2ccccc2)CC1`, for which the hepatocyte CLint in data set [2] is 2 µL/min/1e6 cells. Also, the log distribution coefficient (logD) in data set [1] turned out to be 2.2. In [3], this molecule displayed a solubility of 177 µM (≈ 72.8 µg/mL). For the same molecule, the apical-to-basolateral permeability (Papp A→B) in data set [4] is 2 ×10⁻⁶ cm/s. For the same molecule, the microsomal CLint in [5] is < 3 µL/min/mg.

For the molecule `Cn1nc(-c2cnc(N)c(C#N)n2)nc1C1(c2ccccc2)CC1`, the logD in data set [1] turned out to be 2.2.

`Cn1nc(-c2cnc(N)c(-n3cc(C(N)=O)cn3)n2)nc1C1(c2ccccc2)CC1` registered a logD in data set [1] of 2.8.

What is called clearance is the volume of plasma or blood freed of the substance per unit of time. Higher therefore signals a high capacity for elimination. Usually bioavailability stands for dose-corrected exposure relative to a reference, in per cent. Read a low bioavailability as poor availability. As usually defined, the half-life is the time in which the quantity being followed falls by half. `Cn1nc(-c2cnc(N)c(-c3ccc(C(N)=O)c(F)c3)n2)nc1C1(c2ccccc2)CC1`: the hepatocyte CLint in data set [2] is < 1 µL/min/1e6 cells. The same molecule yielded a logD in data set [1] of 2.2. Also, in data set [6], the clearance is 12 mL/min/kg. In data set [7], this molecule returned a bioavailability of 41%. The molecule also had a half-life in [8] of 3.4 h. In addition, the solubility in [3] was found to be 32 µM (≈ 13.7 µg/mL). The same molecule displayed a Papp A→B in data set [4] of 13 ×10⁻⁶ cm/s. Besides, the microsomal CLint in [5] is < 3 µL/min/mg. Further, in data set [9], the Vd is 2.8 L/kg.
